# Measured values reported in patent publication US9938273B2 (Plexxikon Inc., priority 2015, dated 2018).
# What was measured:
# [1] = tested on: MOLM-14 D835Y cells, FLT3 ITD and FLT3 D835Y; assay: Cell proliferation assay (CellTiter-Glo), MOLM-14 D835Y; assay type: cell-based; conditions: Homo sapiens, 72 h, 3d-Growth, GMean
# In short: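 MOLM-14 AML cells (endogenous FLT3 ITD, AC220-selected D835Y or F691L variants) or murine Ba/F3 expressing full-length FLT3 ITD/D835Y, without IL-3 for FLT3 dependence, 1×10^4 cells/well. Eight-point 1:3 series from 1 μM final, 0.2% DMSO, 3 days at 37 °C. CellTiter-Glo luminescence (ATP) gave IC50.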
# FLT3-ITD = target: T1, FLT3-ITD (Homo sapiens, UniProt P36888); assay: AlphaScreen kinase assay with recombinant enzyme, FLT3-ITD; assay type: biochemical; conditions: 8pt; read-out: FLT3_ITD 8pt: IC50
# T1 sequence (P36888 1-993): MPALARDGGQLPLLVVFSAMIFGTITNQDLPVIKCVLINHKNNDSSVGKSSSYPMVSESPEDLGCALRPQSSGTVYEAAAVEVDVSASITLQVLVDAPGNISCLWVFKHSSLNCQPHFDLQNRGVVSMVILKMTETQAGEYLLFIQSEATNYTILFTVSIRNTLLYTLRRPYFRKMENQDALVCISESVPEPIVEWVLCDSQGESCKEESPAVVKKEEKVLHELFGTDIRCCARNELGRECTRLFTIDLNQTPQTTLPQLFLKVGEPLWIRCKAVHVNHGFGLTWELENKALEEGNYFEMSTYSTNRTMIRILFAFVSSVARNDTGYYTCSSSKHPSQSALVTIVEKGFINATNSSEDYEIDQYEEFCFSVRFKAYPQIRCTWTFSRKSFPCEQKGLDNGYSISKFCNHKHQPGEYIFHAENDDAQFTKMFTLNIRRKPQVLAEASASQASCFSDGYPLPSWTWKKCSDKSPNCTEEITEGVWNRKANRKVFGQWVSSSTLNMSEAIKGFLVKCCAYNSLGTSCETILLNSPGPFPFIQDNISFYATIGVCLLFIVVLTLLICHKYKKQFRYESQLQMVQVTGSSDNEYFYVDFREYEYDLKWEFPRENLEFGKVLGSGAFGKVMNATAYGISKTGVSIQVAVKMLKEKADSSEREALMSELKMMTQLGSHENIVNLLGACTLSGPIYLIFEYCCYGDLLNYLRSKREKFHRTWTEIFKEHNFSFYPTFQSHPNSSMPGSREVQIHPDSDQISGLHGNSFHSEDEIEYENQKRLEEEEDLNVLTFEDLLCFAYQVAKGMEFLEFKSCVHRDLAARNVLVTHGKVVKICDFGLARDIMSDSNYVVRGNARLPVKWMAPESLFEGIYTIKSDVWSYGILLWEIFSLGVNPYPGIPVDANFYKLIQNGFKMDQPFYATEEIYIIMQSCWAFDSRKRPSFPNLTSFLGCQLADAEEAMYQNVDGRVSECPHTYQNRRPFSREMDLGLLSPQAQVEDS
# In short: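 Recombinant kinase phosphorylates biotinylated poly(Glu4-Tyr) peptide (30 nM final); streptavidin donor and anti-phosphotyrosine PY20 acceptor beads (10 μg/mL final) give a 580 nm proximity signal on 680 nm excitation. IC50 determinations used a final concentration of 10 μM for FLT3-D835Y/FLT3-ITD and 100 μM for c-KIT.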
SMILES,IC50 [1] [µM],IC50 (FLT3-ITD) [µM]
"N#CC1CCN(C(=O)c2cccc(-c3cnc4[nH]c(C5=CCOCC5)c(Cl)c4c3)n2)C1 (stereo not drawn) [Compound P-0142, 1-[6-[3-chloro-2-(3,6-dihydro-2H-pyran-4-yl)-1H-pyrrolo[2,3-b]pyridin-5-yl]pyridine-2-carbonyl]pyrrolidine-3-carbonitrile]",0.0001 to 10,0.0001 to 10
"N#CCCNC(=O)c1cccc(-c2cnc3[nH]c(-c4ccccc4)c(I)c3c2)n1 [Compound P-0143, N-(2-cyanoethyl)-6-(3-iodo-2-phenyl-1H-pyrrolo[2,3-b]pyridin-5-yl)pyridine-2-carboxamide]",0.0001 to 10,0.0001 to 10
"CC(C)(C#N)CNC(=O)c1cccc(-c2cnc3[nH]c(-c4ccc(F)cc4)cc3c2)n1 [Compound P-0144, N-(2-cyano-2-methyl-propyl)-6-[2-(4-fluorophenyl)-1H-pyrrolo[2,3-b]pyridin-5-yl]pyridine-2-carboxamide]",0.0001 to 10,0.0001 to 10
"CC(C)(C#N)NC(=O)c1cccc(-c2cnc3[nH]c(-c4ccc(F)cc4)cc3c2)n1 [Compound P-0145, N-(1-cyano-1-methyl-ethyl)-6-[2-(4-fluorophenyl)-1H-pyrrolo[2,3-b]pyridin-5-yl]pyridine-2-carboxamide]",0.0001 to 10,0.0001 to 10
"N#CC1(NC(=O)c2cccc(-c3cnc4[nH]c(-c5ccccc5)cc4c3)n2)CCCC1 [Compound P-0146, N-(1-cyanocyclopentyl)-6-(2-phenyl-1H-pyrrolo[2,3-b]pyridin-5-yl)pyridine-2-carboxamide]",0.0001 to 10,0.0001 to 10
"N#CCCNC(=O)c1cccc(-c2cnc3[nH]c(-c4ccccc4)c(Br)c3c2)n1 [Compound P-0147, 6-(3-bromo-2-phenyl-1H-pyrrolo[2,3-b]pyridin-5-yl)-N-(2-cyanoethyl)pyridine-2-carboxamide]",0.0001 to 10,0.0001 to 10
"N#CC1(CNC(=O)c2cccc(-c3cnc4[nH]c(-c5ccccc5)c(Cl)c4c3)n2)CC1 [Compound P-0148, 6-(3-chloro-2-phenyl-1H-pyrrolo[2,3-b]pyridin-5-yl)-N-[(1-cyanocyclopropyl)methyl]pyridine-2-carboxamide]",0.0001 to 10,0.0001 to 10
"O=C(NC1(C(F)(F)F)CCCC1)c1cccc(-c2cnc3[nH]c(-c4ccccc4)cc3c2)n1 [Compound P-0149, 6-(2-phenyl1H-pyrrolo[2,3-b]pyridin-5-yl)-N-[1-(trifluoromethyl)cyclopentyl]pyridine-2-carboxamide]",0.0001 to 10,0.0001 to 10
"CC(C)(O)CNC(=O)c1cccc(-c2cnc3[nH]c(-c4ccccc4)cc3c2)n1 [Compound P-0150, N-(2-hydroxy-2-methyl-propyl)-6-(2-phenyl-1H-pyrrolo[2,3-b]pyridin-5-yl)pyridine-2-carboxamide]",0.0001 to 10,0.0001 to 10
"O=C(NC1(CO)CC1)c1cccc(-c2cnc3[nH]c(-c4ccccc4)cc3c2)n1 [Compound P-0151, N-[1-(hydroxymethyl)cyclopropyl]-6-(2-phenyl-1H-pyrrolo[2,3-b]pyridin-5-yl)pyridine-2-carboxamide]",0.0001 to 10,0.0001 to 10
"CC(C)(C#N)CNC(=O)c1cccc(-c2cnc3[nH]c(-c4ccnc(C5CC5)c4)cc3c2)n1 [Compound P-0152, N-(2-cyano-2-methyl-propyl)-6-[2-(2-cyclopropyl-4-pyridyl)-1H-pyrrolo[2,3-b]pyridin-5-yl]pyridine-2-carboxamide]",0.0001 to 10,0.0001 to 10
"CC(C)(C#N)CNC(=O)c1cccc(-c2cnc3[nH]c(-c4cnn(C(F)F)c4)cc3c2)n1 [Compound P-0153, N-(2-cyano-2-methyl-propyl)-6-[2-[1-(difluoromethyl)pyrazol-4-yl]-1H-pyrrolo[2,3-b]pyridin-5-yl]pyridine-2-carboxamide]",0.0001 to 10,0.0001 to 10
"COc1cc(-c2cc3cc(-c4cccc(C(=O)NCC(C)(C)C#N)n4)cnc3[nH]2)ccn1 [Compound P-0154, N-(2-cyano-2-methyl-propyl)-6-[2-(2-methoxy-4-pyridyl)-1H-pyrrolo[2,3-b]pyridin-5-yl]pyridine-2-carboxamide]",0.0001 to 10,0.0001 to 10
"Cn1cc(-c2cc3cc(-c4cccc(C(=O)NCC(C)(C)C#N)n4)cnc3[nH]2)ccc1=O [Compound P-0155, N-(2-cyano-2-methyl-propyl)-6-[2-(1-methyl-6-oxo-3-pyridyl)-1H-pyrrolo[2,3-b]pyridin-5-yl]pyridine-2-carboxamide]",0.0001 to 10,0.0001 to 10
"O=C(NC1(C(F)(F)F)CC1)c1cccc(-c2cnc3[nH]c(-c4ccccc4)cc3c2)n1 [Compound P-0156, 6-(2-phenyl-1H-pyrrolo[2,3-b]pyridin-5-yl)-N-[1-(trifluoromethyl)cyclopropyl]pyridine-2-carboxamide]",0.0001 to 10,0.0001 to 10
"CC(C)(C#N)CNC(=O)c1cccc(-c2cnc3[nH]c(C4=CCC(F)(F)CC4)cc3c2)n1 [Compound P-0157, N-(2-cyano-2-methyl-propyl)-6-[2-(4,4-difluorocyclohexen-1-yl)-1H-pyrrolo[2,3-b]pyridin-5-yl]pyridine-2-carboxamide]",0.0001 to 10,0.0001 to 10
"CC(C)(C#N)CNC(=O)c1cccc(-c2cnc3[nH]c(C4=CCSCC4)cc3c2)n1 [Compound P-0159, N-(2-cyano-2-methyl-propyl)-6-[2-(3,6-dihydro-2H-thiopyran-4-yl)-1H-pyrrolo[2,3-b]pyridin-5-yl]pyridine-2-carboxamide]",0.0001 to 10,0.0001 to 10
"CC(C)(C#N)CNC(=O)c1cccc(-c2cnc3[nH]c(C4=CCS(=O)(=O)CC4)cc3c2)n1 [Compound P-0160, N-(2-cyano-2-methyl-propyl)-6-[2-(1,1-dioxo-3,6-dihydro-2H-thiopyran-4-yl)-1H-pyrrolo[2,3-b]pyridin-5-yl]pyridine-2-carboxamide]",0.0001 to 10,0.0001 to 10
"CC(C)(C#N)CNC(=O)c1cccc(-c2cnc3[nH]c(C4=CC[S+]([O-])CC4)cc3c2)n1 (stereo not drawn) [Compound P-0161, N-(2-cyano-2-methyl-propyl)-6-[2-(1-oxo-3,6-dihydro-2H-thiopyran-4-yl)-1H-pyrrolo[2,3-b]pyridin-5-yl]pyridine-2-carboxamide]",0.0001 to 10,0.0001 to 10
"CC(C)(C#N)CNC(=O)c1cccc(-c2cnc3[nH]c(C4=CCN(C(=O)C5CC5)CC4)cc3c2)n1 [Compound P-0162, N-(2-cyano-2-methyl-propyl)-6-[2-[1-(cyclopropanecarbonyl)-3,6-dihydro-2H-pyridin-4-yl]-1H-pyrrolo[2,3-b]pyridin-5-yl]pyridine-2-carboxamide]",0.0001 to 10,0.0001 to 10
"Cc1cc(-c2cc3cc(-c4cccc(C(=O)NC(C)(C)C#N)n4)cnc3[nH]2)cnn1 [Compound P-0163, N-(1-cyano-1-methyl-ethyl)-6-[2-(6-methylpyridazin-4-yl)-1H-pyrrolo[2,3-b]pyridin-5-yl]pyridine-2-carboxamide]",0.0001 to 10,0.0001 to 10
"CC(C)(C#N)NC(=O)c1cccc(-c2cnc3[nH]c(-c4cnn(C(F)F)c4)cc3c2)n1 [Compound P-0164, N-(2-cyanopropan-2-yl)-6-(2-(1-(difluoromethyl)-1H-pyrazol-4-yl)-1H-pyrrolo[2,3-b]pyridin-5-yl)picolinamide]",0.0001 to 10,0.0001 to 10
"CC(C)(C#N)NC(=O)c1cccc(-c2cnc3[nH]c(-c4cnn(C5CC5)c4)cc3c2)n1 [Compound P-0165, N-(1-cyano-1-methyl-ethyl)-6-[2-(1-cyclopropylpyrazol-4-yl)-1H-pyrrolo[2,3-b]pyridin-5-yl]pyridine-2-carboxamide]",0.0001 to 10,0.0001 to 10
"CC(C)(C#N)NC(=O)c1cccc(-c2cnc3[nH]c(-c4cnc(C5CC5)nc4)cc3c2)n1 [Compound P-0166, N-(1-cyano-1-methyl-ethyl)-6-[2-(2-cyclopropylpyrimidin-5-yl)-1H-pyrrolo[2,3-b]pyridin-5-yl]pyridine-2-carboxamide]",0.0001 to 10,0.0001 to 10
